pIC50: −log10 of the molar value. Counter-ions that a name gives are not always drawn. Like-named read-outs stand apart in the source and are kept apart here.
Target: CCR4 (Homo sapiens (Human), UniProt P51679)
Experiment: Calcium mobilization (Ca Flux) assay
Assay type: cell-based
Method: Calcium Mobilization Assay. Calcium mobilization experiments may be performed by labeling the human T-cell line CEM with […] dye (45 min at room temperature), washing with PBS, and re-suspending into flux buffer (HBSS with 1% FBS).

Sequence of CCR4 (P51679 whole entry): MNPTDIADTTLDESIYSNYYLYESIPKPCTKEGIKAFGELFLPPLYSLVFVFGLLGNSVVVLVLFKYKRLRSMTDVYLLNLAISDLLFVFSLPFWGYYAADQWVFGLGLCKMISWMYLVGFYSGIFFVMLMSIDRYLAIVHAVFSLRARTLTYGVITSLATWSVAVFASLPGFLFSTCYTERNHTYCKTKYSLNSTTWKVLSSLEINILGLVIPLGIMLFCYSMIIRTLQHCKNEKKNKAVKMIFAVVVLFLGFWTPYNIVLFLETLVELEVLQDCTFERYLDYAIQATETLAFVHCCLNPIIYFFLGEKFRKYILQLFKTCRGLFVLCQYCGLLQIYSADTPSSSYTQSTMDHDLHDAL

pIC50 | pIC50 (hydrochloride) | Structure (SMILES)
< 6.30 |  | Cc1nn([C@H](C)c2ccc(Cl)cc2Cl)c2nc(N3CCC(N4CCCC(CCC(=O)O)C4)C(C)C3)cnc12 (mixture of isomers) [Example 41, 3-(1′-(1-((R)-1-(2,4-dichlorophenyl)ethyl)-3-methyl-1H-pyrazolo[3,4-b]pyrazin-6-yl)-3′-methyl-[1,4′-bipiperidin]-3-yl)propanoic acid]
< 6.30 |  | Cc1nn([C@H](C)c2ccc(Cl)cc2Cl)c2nc(N3CCC(N4CCC[C@H]4CCC(=O)O)C[C@@H]3C)cnc12 (mixture of isomers) [Example 50, 3-((2S)-1-((2S)-1-(1-((R)-1-(2,4-Dichlorophenyl)ethyl)-3-methyl-1H-pyrazolo[3,4-b]pyrazin-6-yl)-2-methylpiperidin-4-yl)pyrrolidin-2-yl)propanoic acid 2,2,2-trifluoroacetate]
< 6.30 |  | Cc1nn([C@H](C)c2ccc(Cl)cc2Cl)c2nc(N3CCC(N4CCC[C@H]4C4CC4C(=O)O)C(C)C3)cnc12 (mixture of isomers) [Example 54, 2-((2S)-1-(1-(1-((R)-1-(2,4-Dichlorophenyl)ethyl)-3-methyl-1H-pyrazolo[3,4-b]pyrazin-6-yl)-3-methylpiperidin-4-yl)pyrrolidin-2-yl)cyclopropane-1-carboxylic acid]
< 6.30 |  | COC(C[C@@H]1CCCN1C1CCN(c2cnc3c(C)nn([C@H](C)c4ccc(Cl)cc4Cl)c3n2)CC1C)C(=O)O (mixture of isomers) [Example 55, 3-((2S)-1-(1-(1-((R)-1-(2,4-Dichlorophenyl)ethyl)-3-methyl-1H-pyrazolo[3,4-b]pyrazin-6-yl)-3-methylpiperidin-4-yl)pyrrolidin-2-yl)-2-methoxypropanoic acid 2,2,2-trifluoroacetae]
> 7.00 |  | CC1CC(c2cnc3c(C#N)nn([C@H](C)c4ccc(Cl)cc4Cl)c3n2)=CCC1N1CCC[C@H]1CCC(=O)O (mixture of isomers) [Example 74, 3-((2S)-1-(4-(3-Cyano-1-((R)-1-(2,4-dichlorophenyl)ethyl)-1H-pyrazolo[3,4-b]pyrazin-6-yl)-6-methylcyclohex-3-en-1-yl)pyrrolidin-2-yl)propanoic acid 2,2,2-trifluoroacetate]
6.30 to 7.00 |  | COC[C@@H]1CCCN1C1CC=C(c2cnc3c(C#N)nn([C@H](C)c4ccc(Cl)cc4Cl)c3n2)CC1C (mixture of isomers) [Example 84, 1-((R)-1-(2,4-Dichlorophenyl)ethyl)-6-(4-((S)-2-(methoxymethyl)pyrrolidin-1-yl)-5-methylcyclohex-1-en-1-yl)-1H-pyrazolo[3,4-b]pyrazine-3-carbonitrile hydrochloride]
6.30 to 7.00 |  | CC1CC(c2cnc3c(C#N)nn([C@H](C)c4ccc(Cl)cc4Cl)c3n2)=CCC1N1CCC[C@H]1CC(=O)O (mixture of isomers) [Example 85, 2-((2S)-1-(4-(3-Cyano-1-((R)-1-(2,4-dichlorophenyl)ethyl)-1H-pyrazolo[3,4-b]pyrazin-6-yl)-6-methylcyclohex-3-en-1-yl)pyrrolidin-2-yl)acetic acid 2,2,2-trifluoroacetate]
< 6.30 |  | CCOC(=O)c1nn(C(C)c2ccc(Cl)cc2Cl)c2nc(N3CCC(N4CCCCC4)CC3)cnc12 (racemic) [Example 1, Ethyl 6-([1,4′-bipiperidin]-1′-yl)-1-(1-(2,4-dichlorophenyl)ethyl)-1H-pyrazolo[3,4-b]pyrazine-3-carboxylate hydrochloride]
6.30 to 7.00 |  | Cc1nn([C@H](C)c2ccc(Cl)cc2Cl)c2nc(N3CCC(N4CCC[C@H]4CCC(O)C(F)(F)F)C(C)C3)cnc12 (single isomer, unassigned) [Example 46, hydrochloride]
6.30 to 7.00 |  | Cc1nn([C@H](C)c2ccc(Cl)cc2Cl)c2nc(N3CCC(N4CCC[C@H]4CCC(O)C(F)(F)F)C(C)C3)cnc12 (single isomer, unassigned) [Example 47, hydrochloride]
6.30 to 7.00 |  | Cc1nn([C@H](C)c2ccc(Cl)cc2Cl)c2nc(N3CCC(N4CCC[C@H]4CC(F)C(=O)O)C(C)C3)cnc12 (single isomer, unassigned) [Example 56]
< 6.30 |  | Cc1nn([C@H](C)c2ccc(Cl)cc2Cl)c2nc(N3CCC(N4CCC[C@H]4CC(F)C(=O)O)C(C)C3)cnc12 (single isomer, unassigned) [Example 57]
 | < 6.30 | Cc1nn([C@H](C)c2ccc(Cl)cc2Cl)c2nc(C3=CCC(N4CCC[C@H]4CCC(=O)O)C(C)C3)cnc12 (stereo in doubt) [Example 72, 3-((S)-1-((1R,6S)-4-(1-((R)-1-(2,4-Dichlorophenyl)ethyl)-3-methyl-1H-pyrazolo[3,4-b]pyrazin-6-yl)-6-methylcyclohex-3-en-1-yl)pyrrolidin-2-yl)propanoic acid hydrochloride]
6.30 to 7.00 |  | CCOC(=O)c1nn(C(C)c2ccc(Cl)cc2Cl)c2nc(N3CCC(N4CCCCC4)C(C)C3)cnc12 (centres unmarked) [Example 2, Ethyl 1-(1-(2,4-dichlorophenyl)ethyl)-6-(3′-methyl-[1,4′-bipiperidin]-1′-yl)-1H-pyrazolo[3,4-b]pyrazine-3-carboxylate hydrochloride]
< 6.30 |  | CC1CCCCN1C1CCN(c2cnc3c(C(N)=O)nn(C(C)c4ccc(Cl)cc4Cl)c3n2)CC1 (centres unmarked) [Example 3, 1-(1-(2,4-Dichlorophenyl)ethyl)-6-(2-methyl-[1,4′-bipiperidin]-1′-yl)-1H-pyrazolo[3,4-b]pyrazine-3-carboxamide hydrochloride]
6.30 to 7.00 |  | CC1CN(c2cnc3c(C(N)=O)nn(C(C)c4ccc(Cl)cc4Cl)c3n2)CCC1N1CCCCC1 (centres unmarked) [Example 4, 1-(1-(2,4-Dichlorophenyl)ethyl)-6-(3′-methyl-[1,4′-bipiperidin]-1′-yl)-1H-pyrazolo[3,4-b]pyrazine-3-carboxamide hydrochloride]
6.30 to 7.00 |  | CC1CN(c2cnc3c(C(N)=O)nn([C@H](C)c4ccc(Cl)cc4Cl)c3n2)CCC1N1CCCCC1 (stereo partly drawn) [Example 5, 1-((R)-1-(2,4-Dichlorophenyl)ethyl)-6-(3′-methyl-[1,4′-bipiperidin]-1′-yl)-1H-pyrazolo[3,4-b]pyrazine-3-carboxamide 2,2,2-trifluoroacetate]
6.30 to 7.00 |  | CCC1CN(c2cnc3c(C(N)=O)nn(C(C)c4ccc(Cl)cc4Cl)c3n2)CCC1N1CCCCC1 (centres unmarked) [Example 6, 1-(1-(2,4-Dichlorophenyl)ethyl)-6-(3′-ethyl-[1,4′-bipiperidin]-1′-yl)-1H-pyrazolo[3,4-b]pyrazine-3-carboxamide hydrochloride]
6.30 to 7.00 |  | CCC1CN(c2cnc3c(C#N)nn(C(C)c4ccc(Cl)cc4Cl)c3n2)CCC1N1CCCCC1 (centres unmarked) [Example 7, 1-(1-(2,4-Dichlorophenyl)ethyl)-6-(3′-ethyl-[1,4′-bipiperidin]-1′-yl)-1H-pyrazolo[3,4-b]pyrazine-3-carbonitrile 2,2,2-trifluoroacetate]
6.30 to 7.00 |  | CC1CN(c2cnc3cnn(C(C)c4ccc(Cl)cc4Cl)c3n2)CCC1N1CCCCC1 (centres unmarked) [Example 8, 1-(1-(2,4-Dichlorophenyl)ethyl)-6-(3′-methyl-[1,4′-bipiperidin]-1′-yl)-1H-pyrazolo[3,4-b]pyrazine hydrochloride]
6.30 to 7.00 |  | CCC1CN(c2cnc3cnn(C(C)c4ccc(Cl)cc4Cl)c3n2)CCC1N1CCCCC1 (centres unmarked) [Example 9, 1-(1-(2,4-Dichlorophenyl)ethyl)-6-(3′-ethyl-[1,4′-bipiperidin]-1′-yl)-1H-pyrazolo[3,4-b]pyrazine hydrochloride]
< 6.30 |  | CC1CN(c2cnc3c(C(F)(F)F)nn(C(C)c4ccc(Cl)cc4Cl)c3n2)CCC1N1CCCCC1 (centres unmarked) [Example 10, 1-(1-(2,4-Dichlorophenyl)ethyl)-6-(3′-methyl-[1,4′-bipiperidin]-1′-yl)-3-(trifluoromethyl)-1H-pyrazolo[3,4-b]pyrazine hydrochloride]
> 7.00 |  | Cc1nn([C@H](C)c2ccc(Cl)cc2Cl)c2nc(N3CC[C@H](N4CCCC4)[C@H](C)C3)cnc12 [Example 12, 1-((R)-1-(2,4-Dichlorophenyl)ethyl)-3-methyl-6-((3R,4S)-3-methyl-4-(pyrrolidin-1-yl)piperidin-1-yl)-1H-pyrazolo[3,4-b]pyrazine hydrochloride]
> 7.00 |  | Cc1nn([C@H](C)c2ccc(Cl)cc2Cl)c2nc(N3CC[C@H](N4CCCCCCC4)[C@H](C)C3)cnc12 [Example 16, 6-((3R,4S)-4-(Azocan-1-yl)-3-methylpiperidin-1-yl)-1-((R)-1-(2,4-dichlorophenyl)ethyl)-3-methyl-1H-pyrazolo[3,4-b]pyrazine hydrochloride]
6.30 to 7.00 |  | Cc1nn([C@H](C)c2ccc(Cl)cc2Cl)c2nc(N3CC[C@H](N4CC=CC4)[C@H](C)C3)cnc12 [Example 17, 1-((R)-1-(2,4-Dichlorophenyl)ethyl)-6-((3R,4S)-4-(2,5-dihydro-1H-pyrrol-1-yl)-3-methylpiperidin-1-yl)-3-methyl-1H-pyrazolo[3,4-b]pyrazine hydrochloride]
6.30 to 7.00 |  | Cc1nn([C@H](C)c2ccc(Cl)cc2Cl)c2nc(N3CC(C)C(N4CCCC4)C[C@@H]3C)cnc12 (stereo partly drawn) [Example 18, 1-((R)-1-(2,4-Dichlorophenyl)ethyl)-6-((2S)-2,5-dimethyl-4-(pyrrolidin-1-yl)piperidin-1-yl)-3-methyl-1H-pyrazolo[3,4-b]pyrazine hydrochloride]
6.30 to 7.00 |  | Cc1nn([C@H](C)c2ccc(Cl)cc2Cl)c2nc(N3C[C@@H](C)[C@@H](N4CCCC4)C[C@@H]3C)cnc12 [Example 19, 1-((R)-1-(2,4-Dichlorophenyl)ethyl)-6-((2S,4S,5R)-2,5-dimethyl-4-(pyrrolidin-1-yl)piperidin-1-yl)-3-methyl-1H-pyrazolo[3,4-b]pyrazine hydrochloride]
> 7.00 |  | Cc1nn([C@H](C)c2ccc(Cl)cc2Cl)c2nc(N3CC[C@H](N4CCC[C@H]4C)[C@H](C)C3)cnc12 [Example 20, 1-((R)-1-(2,4-Dichlorophenyl)ethyl)-3-methyl-6-((3R,4S)-3-methyl-4-((R)-2-methylpyrrolidin-1-yl)piperidin-1-yl)-1H-pyrazolo[3,4-b]pyrazine hydrochloride]

Structure (SMILES) | pIC50 | pIC50 (hydrochloride)
CCOC(=O)c1nn(Cc2ccc(Cl)cc2Cl)c2nc(N3CCC(N4CCCCC4)C(C)C3)cnc12 (centres unmarked) [Example 11, Ethyl 1-(2,4-dichlorobenzyl)-6-(3′-methyl-[1,4′-bipiperidin]-1′-yl)-1H-pyrazolo[3,4-b]pyrazine-3-carboxylate hydrochloride] | 6.30 to 7.00 | 

From patent US10246462B2, “Chemokine receptor modulators and uses thereof” (FLX Bio, Inc., priority 2016, dated 2019)
